In the METLIN SMRT retention time set (Domingo-Almenara et al. 2019):

Assay: gradient 5% acetonitrile 3 min, to 50% in 2 min, to 85% in 15 min, held 3 min, 100 µL/min
Settings: column: Zorbax Extend-C18 2.1 x 50 mm; eluents: water / acetonitrile, 0.1% formic acid
Summary of the method: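 Pure standards were run in mixtures of ~100 molecules by HPLC coupled to a quadrupole time-of-flight mass spectrometer. The column was a Zorbax Extend-C18 (2.1 × 50 mm, 1.8 μm) at 100 μL/min, with water and acetonitrile each containing 0.1% formic acid, in positive and negative ionization mode. Dead and dwell volumes were 40 μL and 900 μL. Retention time was taken from computationally picked adduct peaks, each manually inspected, with data collected over 3 months.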

| RP-LC retention time [s] | SMILES |
| --- | --- |
| 1290 | CCOc1ccc(-n2nc(-c3nc(-c4ccc5c(c4)OCO5)no3)c3ccccc3c2=O)cc1 |
| 735 | CCc1noc(-c2cnc3nc(C)ccc3c2NCc2cc(OC)ccc2OC)n1 |
| 767 | CCOc1ccc(NC(=O)c2cnc(N3CCN(c4ccc(OC)cc4)CC3)nc2N)cc1 |
| 836 | CC1=NS(=O)(=O)c2cccnc2N1c1ccc(Br)cc1 |
| 1340 | c1ccc(-c2nc3cnc(N4CCN(c5ccccc5)CC4)nc3o2)cc1 |
| 1130 | Cc1ccc(N2C(=O)C3N=NN(Cc4nc(-c5ccc(Br)cc5)no4)C3C2=O)cc1C (stereo unspecified) |
| 615 | CCc1nccn1Cc1noc(-c2ccc(F)cc2)n1 |
| 648 | Cc1cccc(C2CN(C)CCc3c2cc(O)c(O)c3Cl)c1 (stereo unspecified) |
| 814 | O=C(C1CCN(S(=O)(=O)c2ccc(-c3noc(-c4ccncc4)n3)cc2)CC1)N1CCCC1 |
| 853 | Cc1ccc(NC(=O)Cn2nc3c(Oc4ccccc4C)nccn3c2=O)cc1 |
| 634 | Clc1ccc(OCc2nc(-c3cccnc3)n[nH]2)cc1 |
| 1020 | O=C(Nc1nnc(SCc2ccc(Br)cc2)s1)c1ccccc1F |
| 1100 | CCOC(=O)c1sc(NC(=O)c2cccc([N+](=O)[O-])c2)nc1-c1ccccc1 |
| 780 | O=S(=O)(Nc1ccc(Br)cn1)c1ccccc1 |
| 651 | O=S(=O)(c1ccccc1)c1[nH]c(-c2ccccc2)nc1SCc1ccncc1 |
| 940 | COc1ccc(NC(=O)N2CCCC2c2nc(-c3ccc(F)cc3F)no2)cc1F (stereo unspecified) |
| 828 | CCCc1nc(C2CC(=O)N(c3ccc(OC)cc3)C2)no1 (stereo unspecified) |
| 837 | COc1ccc(-c2nnc(-c3cc(S(=O)(=O)NC(C)(C)CO)ccc3Cl)o2)cc1 |
| 840 | CC(NC(=O)c1ccccc1)c1nc(-c2cccc(-c3ccnn3C)c2)no1 (stereo unspecified) |
| 817 | c1ccc(-c2nc(CSc3cc(N4CCOCC4)ncn3)cs2)cc1 |

| RP-LC retention time [s] | SMILES |
| --- | --- |
| 625 | O=C(Nc1ccccc1)N1CCc2[nH]cnc2C1c1ccccc1 (stereo unspecified) |
| 977 | O=C(NC(=O)c1c(Cl)nc2sccn12)Nc1ccc(Cl)cc1 |
| 986 | Cc1ccc(NS(=O)(=O)c2cn(CC(C)C)c3ncccc23)c(F)c1 |
| 736 | COC(=O)c1c(NCc2ccc(OC)c(OC)c2)c2cccc(Cl)c2[nH]c1=O |
| 762 | COc1ccc(Cl)c2c(=O)c3c([nH]c12)CCN(CC(=O)NCc1ccc(Cl)cc1)C3 |
| 761 | O=C(Cn1cnc2nc3c(cc2c1=O)CCCC3)Nc1ccc(Cl)cc1 |
| 758 | O=C(c1n[nH]c2c1CCCC2)N1CCN(c2ccc(=O)n(-c3ccc(Cl)cc3)n2)CC1 |
| 852 | CCN1C(=O)c2cccnc2Sc2cc(NC(=O)c3ccc(F)cc3Cl)ccc21 |
| 755 | Cc1ccc(C2=NC3(CCN(C(=O)c4ccc5cc[nH]c5c4)CC3)ON2)cc1 |
| 847 | O=C(CN1CCN(Cc2ccc(F)cc2)C1=O)NCCc1ccccc1Cl |
| 1150 | Cc1ccc(-c2nc(-c3cccc(-c4ccn[nH]4)c3)no2)c(C)c1 |
| 1150 | CCOc1ccccc1-c1noc(-c2nnn3c2COC(c2ccc(Cl)cc2)C3)n1 (stereo unspecified) |
| 1130 | O=S(=O)(c1ccc(Cl)c(-c2nnc(-c3ccccc3)o2)c1)N1CCCCC1 |
| 981 | O=C(c1ccc(Cl)cc1)N1CCc2cc(CNS(=O)(=O)Cc3ccccc3)ccc21 |
| 1270 | CCCOc1nc2ccccc2nc1N1CCCC(C(=O)NCc2ccc(Cl)cc2)C1 (stereo unspecified) |
| 1060 | Cc1cc(Cl)ccc1OCc1nc(-c2ccc(NS(C)(=O)=O)cc2)no1 |
| 789 | COc1ccccc1CNC(=O)c1ccc2c(c1)nc1n2CCN(Cc2ccccc2)C1=O |
| 821 | O=C(NCC1(c2ccc(F)cc2)CC1)c1ccsc1 |
| 1270 | Cc1ccc(-c2noc(C3CCCN3S(=O)(=O)c3cccc(Cl)c3C)n2)cc1 (stereo unspecified) |
| 844 | Cc1c(C(=O)NCc2ccco2)nnn1-c1ccc(Br)cc1 |

The next lines start with the compound.

| SMILES | RP-LC retention time [s] |
| --- | --- |
| CCC1(O)CCC12CCN(C(=O)c1cccs1)CC2 (stereo unspecified) | 718 |
| Cn1c(=O)sc2cc(S(=O)(=O)N3CCC(C(=O)NCCN4CCCCCC4)CC3)ccc21 | 623 |
| COc1ccc(CCNC[C@H](O)c2ccc(O)cc2)cc1OC | 656 |
| COc1ccc(CC(=O)NCc2c(C)nc3sc(C)nn23)c(Cl)c1 | 622 |
| COc1ccc(Cl)cc1NC(=O)Cn1ccc2c(=O)n(C)c(=O)n(C)c21 | 722 |
| COc1cc(Nc2nc(C(=O)NCCN(C)C)cc3occc23)cc(OC)c1OC | 629 |
| CCCc1ccc(S(=O)(=O)N2C[C@@H](F)C[C@H]2C(=O)N2CCc3ccccc3C2)cc1 | 1060 |
| Cc1ccc(NC(=O)Cn2ncc3c(c2=O)N(CC2CC2)C(=O)CS3)c(C)c1 | 782 |
| COc1ccc(CNC(=O)C2=C3CCCN3c3ccc(F)cc3S2(=O)=O)c(OC)c1 | 870 |
| Cc1nn(CCC(=O)NCCC2=CCCCC2)c(=O)c2nn(-c3ccccc3)c(C)c12 | 867 |
| Cc1nc2cc(NC(=O)c3ccc(N4CCOCC4)nn3)ccc2s1 | 676 |
| CN1C(=O)C2(CCN(C(=O)c3cccc(F)c3)C2)c2ccccc21 (stereo unspecified) | 765 |
| O=C(Cn1ncc2c(c1=O)N(CC1CC1)C(=O)CS2)Nc1cccc(C(F)(F)F)c1 | 869 |
| O=C(CN1CCN(C(=O)Nc2ccccc2)CC1=O)NC1CCCCCC1 | 721 |
| Cc1ccc(C)c(C(=O)Nc2cccn3cnnc23)c1 | 734 |
| CCOC(=O)C1CCN(C(=O)C(C)n2c(=O)c(C(F)(F)F)nc3ccccc32)CC1 (stereo unspecified) | 921 |
| Cc1nc(CNC(=O)[C@H]2CCCN2S(=O)(=O)c2ccc3c(c2)oc(=O)n3C)cs1 | 655 |
| O=S(=O)(c1ccc(-c2nnc(C3CCC3)o2)o1)N1CCOCC1 | 780 |
| COCCCNC(=O)C1(C)CCC(=O)N1CCc1c[nH]c2ccccc12 (stereo unspecified) | 668 |
| Cc1ccc(/C=C/C(=O)N2CCC(c3cc(N)on3)CC2)cc1 | 751 |
| CC(C)CCNC(=O)C1CCCN(c2ncc(-c3ccc(F)cc3)cn2)C1 (stereo unspecified) | 1060 |
| Cc1ccc(NC(=O)N2CCCC2c2cc(C)on2)c(C)c1 (stereo unspecified) | 823 |
| Cc1oc2ncnc(N3CCOCC3)c2c1C(=O)N1CCN(c2ccccn2)CC1 | 567 |
| CCN1CCN(C(=O)CS(=O)Cc2cnn(-c3ccccc3)c2-n2cccc2)CC1 (stereo unspecified) | 614 |
| O=C(NCCC1=CCCCC1)C1CCCN(c2ncnc3c2oc2ccccc23)C1 (stereo unspecified) | 872 |
| Cc1sc(-c2noc(C3CC3)n2)cc1S(=O)(=O)N1CCC(C(=O)NC2CCCCCC2)CC1 | 1080 |

| SMILES | RP-LC retention time [s] |
| --- | --- |
| Cc1noc(C)c1CN1CCC(NC(=O)Cc2ccccc2Cl)C1 (stereo unspecified) | 613 |
| CS(=O)(=O)N1CCCNCCNC(=O)CC1c1ccccc1 (stereo unspecified) | 572 |
| COc1ccc(NC(=O)Cn2cnc3cc4c(cc32)OCCO4)cc1Cl | 658 |
| O=C(Nc1cc(C(F)(F)F)ccc1Cl)c1ccc(S(=O)(=O)N2CCCCC2)cc1 | 1080 |
| CSc1ncc2ncn(C3OC(CO)C(O)C3O)c2n1 (stereo unspecified) | 623 |
| CNC(=O)[C@@H]1C[C@H](Oc2ccccc2)CN1C(=O)C1CCC1 | 680 |
| Cn1cc(C(=O)NCc2ccc(F)cc2)c2cccnc21 | 721 |
| CC(=O)c1cccc(NC(=O)c2ccc(Cl)s2)c1 | 832 |
| CCCCC(=O)N1CC(F)(F)C[C@H]1c1nnc(-c2cnccn2)o1 | 715 |
| CC(C)Cc1csc(-c2csc(S(=O)(=O)NCc3ccccc3F)c2)n1 | 1140 |
| C1CCC(NC2=NCCO2)CC1 | 615 |
| CCOCCCNC(=O)CN1c2ccc(CC)cc2-c2ccccc2S1(=O)=O | 926 |
| COC(=O)c1ccc(C(=O)Nc2nnc(-c3ccc(Br)o3)o2)cc1 | 745 |
| Cc1ccc(C)c(NC(=O)Cn2nc3nc(N4CCCC4)ccn3c2=O)c1 | 687 |
| O=C(CNC(=O)c1cccs1)Nc1nc2ccccc2[nH]1 | 599 |
| Cc1nn(CC(=O)N2CCC3(CC2)OCCO3)c(=O)c2nc(-c3ccccc3)sc12 | 970 |
| COC1C(=O)N(c2cccc(F)c2)C12CCN(Cc1cn(C)c3ccccc13)CC2 (stereo unspecified) | 751 |
| CCOC(=O)C(Cc1c(C)[nH]c2ccccc12)C(=O)OCC | 1000 |
| O=C(NCCc1ccccn1)C1(CCO)CCN(c2ncccn2)C1 (stereo unspecified) | 526 |
| CC(C)n1c(N2CCN(C(=O)c3cc4ccccc4[nH]3)CC2)cc(=O)n(C(C)C)c1=O | 915 |
| Cc1cc(F)ccc1NC(=O)C1CCCN(c2cnc3nccnc3c2)C1 (stereo unspecified) | 711 |
| CCc1nc(-c2cc(S(=O)(=O)Nc3ccc(F)cc3Cl)c(C)s2)cs1 | 1130 |
| N#CCCSc1nnc2sc3ccccc3n12 | 828 |
| N#Cc1ccc(C(=O)NC2CCN(c3ccc(F)cc3)C2=O)cc1 (stereo unspecified) | 754 |
| Cc1cc2nn(CC(=O)N3CCc4ccccc43)c(=O)n2c(Nc2ccccc2C)n1 | 1080 |
